The values that follow come from publication PMC2813745, “A novel inhibitor of the PI3K/Akt pathway based on the structure of inositol 1,3,4,5,6-pentakisphosphate” (British Journal of Cancer, 2010).

One experiment deals with GRK5 (Homo sapiens, UniProt P34947). The experiment can be described thus: SelectScreen kinase profiling: GRK5. The experiment is classed as biochemical. To be noted: 1 µM compound; [ATP] 5 µM. The protocol:
(§1) Effect of the indicated compounds on the activity of various kinases was assessed by SelectScreen Kinase Profiling Service (Invitrogen-Life Technologies, Paisley, UK). Assays were performed using 1 μM of the tested compounds and ATP concentration as indicated in the corresponding tables. In the case of […] a screen using 10 μM of the compound was also carried out, as indicated in the corresponding table.

The target in another experiment is CHEK2 (CHK2) (Homo sapiens, UniProt O96017). The experiment can be described thus: SelectScreen kinase profiling: CHEK2. The class given is biochemical. To be noted: [ATP] 75 µM. The protocol:
as §1

For a further experiment, the target named is ABL1 (Homo sapiens, UniProt P00519). Briefly: SelectScreen kinase profiling: ABL1. The experiment is classed as biochemical. The following applies: [ATP] 10 µM. Here is the method:
as §1

Another experiment deals with IRAK4 (Homo sapiens, UniProt Q9NWZ3). Briefly: SelectScreen kinase profiling: IRAK4. The experiment is classed as biochemical. To be noted: [ATP] 25 µM. Here is the method:
as §1

In a further experiment the target is PIK3CG (p110γ) (Homo sapiens, UniProt P48736). The experiment can be described thus: SelectScreen kinase profiling: PIK3CG. The experiment is classed as biochemical. To be noted: [ATP] 25 µM. Here is the method: as §1
In the next experiment the target is CLK1 (Homo sapiens, UniProt P49759). The experiment can be described thus: SelectScreen kinase profiling: CLK1. The experiment is classed as biochemical. The following applies: [ATP] 25 µM. The protocol:
as §1

The next experiment concerns the target LCK (Homo sapiens, UniProt P06239). Briefly: SelectScreen kinase profiling: LCK. The class given is biochemical. The following applies: [ATP] 50 µM. Here is the method: as §1
The next experiment has as its target PRKCD (PKCδ) (Homo sapiens, UniProt Q05655). Briefly: SelectScreen kinase profiling: PRKCD. The class given is biochemical. The following applies: [ATP] 25 µM. The protocol: as §1
A further experiment concerns the target FRAP1 (mTOR) (Homo sapiens, UniProt P42345). The experiment can be described thus: SelectScreen kinase profiling: mTOR. The class given is biochemical. The protocol: as §1
For another experiment, the target named is RPS6KB1 (p70S6K) (Homo sapiens, UniProt P23443). Briefly: SelectScreen kinase profiling: RPS6KB1. The experiment is classed as biochemical. The following applies: [ATP] 10 µM. Here is the method:
as §1

The target in another experiment is ROCK1 (Homo sapiens, UniProt Q13464). Briefly: SelectScreen kinase profiling: ROCK1. The experiment is classed as biochemical. To be noted: [ATP] 5 µM. The protocol: as §1
In another experiment the target is MAP2K2 (MEK2) (Homo sapiens, UniProt P36507). The experiment can be described thus: SelectScreen kinase profiling: MAP2K2. The experiment is classed as biochemical. The following applies: [ATP] 100 µM. Here is the method:
as §1

In a further experiment the target is ROCK2 (Homo sapiens, UniProt O75116). Briefly: SelectScreen kinase profiling: ROCK2. The experiment is classed as biochemical. To be noted: [ATP] 50 µM. The protocol:
as §1

A further experiment concerns the target MAPK9 (JNK2) (Homo sapiens, UniProt P45984). The experiment can be described thus: SelectScreen kinase profiling: MAPK9. The class given is biochemical. The following applies: [ATP] 100 µM. The protocol:
as §1

A further experiment deals with CDK7/cyclin H/MNAT1 (Homo sapiens, UniProt P50613). The experiment can be described thus: SelectScreen kinase profiling: CDK7/cyclin H/MNAT1. The class given is biochemical. To be noted: [ATP] 150 µM. Here is the method: as §1
CDK7/cyclin H/MNAT1, sequence (P50613 whole entry): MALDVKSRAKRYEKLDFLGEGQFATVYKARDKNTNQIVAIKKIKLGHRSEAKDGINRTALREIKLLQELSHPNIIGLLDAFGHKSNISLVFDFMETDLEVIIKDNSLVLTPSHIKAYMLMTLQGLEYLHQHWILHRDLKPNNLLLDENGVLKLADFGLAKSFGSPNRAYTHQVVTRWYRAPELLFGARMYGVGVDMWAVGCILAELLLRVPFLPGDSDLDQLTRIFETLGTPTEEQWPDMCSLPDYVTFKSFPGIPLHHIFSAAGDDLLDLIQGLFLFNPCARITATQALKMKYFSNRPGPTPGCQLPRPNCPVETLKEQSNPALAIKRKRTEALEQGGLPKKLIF
CDK7/cyclin H/MNAT1, sequence (P51946 whole entry partner): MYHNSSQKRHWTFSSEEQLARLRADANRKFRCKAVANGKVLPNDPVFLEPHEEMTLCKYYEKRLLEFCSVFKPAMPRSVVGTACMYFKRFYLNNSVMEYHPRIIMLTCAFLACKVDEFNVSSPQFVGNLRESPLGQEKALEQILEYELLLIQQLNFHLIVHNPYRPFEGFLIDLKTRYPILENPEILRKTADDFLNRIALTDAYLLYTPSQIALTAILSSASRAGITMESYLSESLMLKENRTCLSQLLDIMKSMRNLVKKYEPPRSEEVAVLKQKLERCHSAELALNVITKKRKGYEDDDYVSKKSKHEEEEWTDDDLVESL
CDK7/cyclin H/MNAT1, sequence (P51948 whole entry partner): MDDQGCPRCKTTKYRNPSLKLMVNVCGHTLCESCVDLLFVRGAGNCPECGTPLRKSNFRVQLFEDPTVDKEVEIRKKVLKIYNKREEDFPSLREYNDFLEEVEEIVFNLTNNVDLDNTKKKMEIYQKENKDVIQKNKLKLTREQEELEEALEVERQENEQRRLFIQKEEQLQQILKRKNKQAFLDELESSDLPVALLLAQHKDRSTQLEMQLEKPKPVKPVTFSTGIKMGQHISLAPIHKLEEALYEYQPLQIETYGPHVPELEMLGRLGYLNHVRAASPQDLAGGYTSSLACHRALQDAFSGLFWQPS
For another experiment, the target named is CDK1/cyclin B (Homo sapiens, UniProt P06493). The experiment can be described thus: SelectScreen kinase profiling: CDK1/cyclin B. The class given is biochemical. The following applies: [ATP] 25 µM. Here is the method:
as §1

A further experiment has as its target PRKACA (PKA) (Homo sapiens, UniProt P17612). The experiment can be described thus: SelectScreen kinase profiling: PRKACA. The experiment is classed as biochemical. The following applies: [ATP] 5 µM. The protocol: as §1
The target of a further experiment is JAK1 (Homo sapiens, UniProt P23458). The experiment can be described thus: SelectScreen kinase profiling: JAK1. The experiment is classed as biochemical. The following applies: [ATP] 75 µM. Here is the method:
as §1

The target in another experiment is PAK6 (Homo sapiens, UniProt Q9NQU5). Briefly: SelectScreen kinase profiling: PAK6. The class given is biochemical. To be noted: [ATP] 10 µM. Here is the method:
as §1

The next experiment concerns PC3 xenografts. The experiment can be described thus: Anti-tumour activity assay on PC3 xenografts. To be noted: for tumour growth: 14 consecutive days. The class given is in vivo, nude athymic CD-1 nu/nu mice. Here is the method:
Male nude athymic CD-1 nu/nu mice (8-weeks old) were obtained from Harlan (San Pietro al Natisone, Italy) and maintained under specific pathogen-free conditions with food and water provided ad libitum. The general health status of the animals was monitored daily. Procedure involving animals and their care were conducted in conformity with the institutional guidelines that are in compliance with national and international laws and policies.
Exponentially growing PC3 cells were harvested, washed twice and resuspended in PBS at a concentration of 2.5 × 10^7 cells ml^−1. A suspension of 5 × 10^6 PC3 cells was injected subcutaneously (s.c.) into the left flank of the recipient mice. When tumours reached a size of ∼70 mm^3 (approximately 15 days after tumour cell implant), mice were divided into seven groups (n=7). […] Control mice were treated with water in an equal volume. The diameters of s.c. growing tumours were measured with a caliper twice a week and the experiment was ended at day 28 after the implantation.
The volume of s.c. growing tumours was calculated by the formula: Tumour weight (mg)=(length × width^2)/2. Differences in s.c tumour growth between the treatment groups were evaluated with a one-way ANOVA followed by Fisher's test using the StatView statistical package (SAS Institute, Cary, NC, USA). The percentage of tumour growth was calculated as T/C%=(RTV-treated animals/RTV-control animals) × 100, where RTV was the mean relative tumour volume calculated as RTV=Vt/V0. Vt was the tumour volume on the day of measurement and V0 was the tumour volume at the beginning of the treatment. The percentage of tumour weight inhibition (TWI%) was calculated using the formula: TWI%=100–T/C%. The log cell kill (LCK) was calculated using the formula: LCK=T−C/3.32 × Td, where T−C is the tumour growth delay calculated as the difference in median time (in days) required for the tumours in the treatment (T) and control group (C) to reach a predetermined size (i.e., 1000 mg). Td is the tumour volume doubling time in days, determined in the exponential growth phase of the control group from a best-fit straight line. […]
The inositol compounds (12.5–25–50 mg kg^−1 day^−1) and vehicle (water) were given daily by intraperitoneal (i.p.) injections for 14 consecutive days (days 15–28). Tumour size was assessed twice weekly. (A, B) Tumour growth in 2-O-Bn-InsP5-treated mice (A) and InsP5-treated mice (B) compared with control group measured for the duration of the experiment. Results are expressed as mean±s.e. […] The percentage of tumour weight inhibition (TWI%), the tumour growth delay (T−C) and the log cell kill (LCK) were calculated as described in the MATERIALS AND METHODS section. […] Phosphorylation of Akt at its residues Ser473 and Thr308 was assessed by using specific antibodies. […]

The target of a further experiment is PRKCE (PKCε) (Homo sapiens, UniProt Q02156). The experiment can be described thus: SelectScreen kinase profiling: PRKCE. The class given is biochemical. The following applies: [ATP] 25 µM. Here is the method: as §1

Usually inhibition stands for the relative decrease from the control value, in per cent. One may read the IC50 as the concentration that inhibits the measured activity by half.

PAK6, sequence (Q9NQU5 whole entry): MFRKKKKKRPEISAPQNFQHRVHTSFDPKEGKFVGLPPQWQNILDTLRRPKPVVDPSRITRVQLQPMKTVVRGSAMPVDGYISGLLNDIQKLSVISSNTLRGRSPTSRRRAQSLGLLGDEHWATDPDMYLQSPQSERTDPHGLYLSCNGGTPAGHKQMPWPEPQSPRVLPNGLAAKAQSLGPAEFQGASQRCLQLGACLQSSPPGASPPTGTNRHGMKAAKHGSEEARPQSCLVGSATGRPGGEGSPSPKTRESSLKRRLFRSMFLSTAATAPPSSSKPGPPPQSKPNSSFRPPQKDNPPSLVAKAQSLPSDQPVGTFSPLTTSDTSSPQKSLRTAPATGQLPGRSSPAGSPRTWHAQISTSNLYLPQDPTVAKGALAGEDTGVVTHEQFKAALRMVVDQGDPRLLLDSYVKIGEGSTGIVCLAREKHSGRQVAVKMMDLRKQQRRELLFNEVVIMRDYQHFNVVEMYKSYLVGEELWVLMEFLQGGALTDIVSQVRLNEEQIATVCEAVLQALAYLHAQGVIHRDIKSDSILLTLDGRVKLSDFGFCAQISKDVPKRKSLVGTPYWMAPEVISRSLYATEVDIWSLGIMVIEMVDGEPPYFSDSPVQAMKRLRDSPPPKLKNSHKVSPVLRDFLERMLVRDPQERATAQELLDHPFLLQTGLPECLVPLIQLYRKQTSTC
IRAK4, sequence (Q9NWZ3 whole entry): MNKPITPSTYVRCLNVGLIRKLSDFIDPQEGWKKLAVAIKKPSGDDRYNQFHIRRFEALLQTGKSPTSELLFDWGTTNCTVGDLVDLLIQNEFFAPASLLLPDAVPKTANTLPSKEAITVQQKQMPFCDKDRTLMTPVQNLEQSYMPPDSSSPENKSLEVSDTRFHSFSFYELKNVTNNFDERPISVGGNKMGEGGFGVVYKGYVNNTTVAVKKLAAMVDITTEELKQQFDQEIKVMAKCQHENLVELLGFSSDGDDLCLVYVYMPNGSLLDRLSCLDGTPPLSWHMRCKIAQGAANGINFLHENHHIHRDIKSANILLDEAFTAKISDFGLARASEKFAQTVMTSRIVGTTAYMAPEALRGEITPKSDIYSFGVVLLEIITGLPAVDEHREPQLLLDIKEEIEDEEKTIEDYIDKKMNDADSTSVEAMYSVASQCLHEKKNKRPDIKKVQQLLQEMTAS
CDK1/cyclin B, sequence (P06493 whole entry): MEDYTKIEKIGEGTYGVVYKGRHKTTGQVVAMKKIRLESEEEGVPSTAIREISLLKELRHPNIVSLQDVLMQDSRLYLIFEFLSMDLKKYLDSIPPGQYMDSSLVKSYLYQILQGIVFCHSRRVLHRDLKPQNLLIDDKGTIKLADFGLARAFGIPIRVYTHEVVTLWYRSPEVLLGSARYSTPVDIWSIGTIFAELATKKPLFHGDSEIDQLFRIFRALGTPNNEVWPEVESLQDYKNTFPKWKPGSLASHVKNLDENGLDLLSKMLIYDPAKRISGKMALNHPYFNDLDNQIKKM
CDK1/cyclin B, sequence (P14635 whole entry partner): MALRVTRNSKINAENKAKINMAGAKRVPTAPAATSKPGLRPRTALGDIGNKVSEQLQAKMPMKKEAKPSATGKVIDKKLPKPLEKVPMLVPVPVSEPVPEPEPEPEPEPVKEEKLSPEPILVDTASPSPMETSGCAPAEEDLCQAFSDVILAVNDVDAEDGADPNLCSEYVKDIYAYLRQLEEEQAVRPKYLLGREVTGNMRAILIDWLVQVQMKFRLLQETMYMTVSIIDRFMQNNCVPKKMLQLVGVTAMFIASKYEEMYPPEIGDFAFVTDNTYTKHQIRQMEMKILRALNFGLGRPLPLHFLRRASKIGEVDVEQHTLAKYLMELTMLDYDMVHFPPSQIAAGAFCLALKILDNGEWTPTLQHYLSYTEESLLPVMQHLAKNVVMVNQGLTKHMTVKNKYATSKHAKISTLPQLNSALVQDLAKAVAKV
JAK1, sequence (P23458 whole entry): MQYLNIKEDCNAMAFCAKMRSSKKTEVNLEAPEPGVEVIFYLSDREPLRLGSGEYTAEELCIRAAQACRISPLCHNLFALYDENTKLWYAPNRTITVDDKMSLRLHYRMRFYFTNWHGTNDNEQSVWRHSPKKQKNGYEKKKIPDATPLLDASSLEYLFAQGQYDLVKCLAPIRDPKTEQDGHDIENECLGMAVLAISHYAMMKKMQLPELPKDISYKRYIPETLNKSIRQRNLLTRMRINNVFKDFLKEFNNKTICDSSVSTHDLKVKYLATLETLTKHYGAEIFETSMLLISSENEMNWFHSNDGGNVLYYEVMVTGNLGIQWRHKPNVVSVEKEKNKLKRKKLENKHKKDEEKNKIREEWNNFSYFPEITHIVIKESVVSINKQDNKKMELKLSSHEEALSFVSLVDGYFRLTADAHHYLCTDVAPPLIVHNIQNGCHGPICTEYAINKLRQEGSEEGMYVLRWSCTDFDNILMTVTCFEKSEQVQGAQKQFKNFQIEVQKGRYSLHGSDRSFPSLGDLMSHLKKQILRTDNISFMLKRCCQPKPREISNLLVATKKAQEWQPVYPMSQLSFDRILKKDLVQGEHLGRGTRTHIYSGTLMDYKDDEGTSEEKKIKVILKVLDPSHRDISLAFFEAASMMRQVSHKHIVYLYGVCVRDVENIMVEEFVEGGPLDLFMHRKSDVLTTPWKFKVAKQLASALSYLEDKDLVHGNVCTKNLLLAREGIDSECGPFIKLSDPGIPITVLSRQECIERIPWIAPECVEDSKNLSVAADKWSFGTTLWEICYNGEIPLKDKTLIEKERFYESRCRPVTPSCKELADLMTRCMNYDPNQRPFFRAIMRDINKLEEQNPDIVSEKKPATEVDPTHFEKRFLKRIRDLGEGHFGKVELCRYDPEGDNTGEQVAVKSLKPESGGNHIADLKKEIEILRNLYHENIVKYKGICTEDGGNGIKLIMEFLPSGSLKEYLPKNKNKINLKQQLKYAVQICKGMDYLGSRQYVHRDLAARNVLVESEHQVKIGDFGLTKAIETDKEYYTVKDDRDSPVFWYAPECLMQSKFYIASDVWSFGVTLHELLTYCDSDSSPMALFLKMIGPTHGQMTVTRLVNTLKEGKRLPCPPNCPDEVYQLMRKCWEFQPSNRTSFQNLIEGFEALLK
LCK, sequence (P06239 whole entry): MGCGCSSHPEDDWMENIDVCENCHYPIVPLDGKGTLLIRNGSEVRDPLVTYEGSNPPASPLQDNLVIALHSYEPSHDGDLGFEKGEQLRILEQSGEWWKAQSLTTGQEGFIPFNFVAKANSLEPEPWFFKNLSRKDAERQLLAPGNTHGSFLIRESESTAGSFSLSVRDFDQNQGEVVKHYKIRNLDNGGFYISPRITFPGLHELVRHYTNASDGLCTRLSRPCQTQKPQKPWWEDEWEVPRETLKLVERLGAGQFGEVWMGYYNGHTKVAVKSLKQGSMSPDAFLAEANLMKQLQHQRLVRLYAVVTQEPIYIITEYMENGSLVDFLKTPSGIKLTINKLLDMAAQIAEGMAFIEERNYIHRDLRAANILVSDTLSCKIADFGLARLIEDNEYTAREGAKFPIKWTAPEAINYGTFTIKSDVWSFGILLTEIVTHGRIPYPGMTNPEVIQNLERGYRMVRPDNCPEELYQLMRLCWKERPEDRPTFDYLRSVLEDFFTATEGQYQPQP
CLK1, sequence (P49759 whole entry): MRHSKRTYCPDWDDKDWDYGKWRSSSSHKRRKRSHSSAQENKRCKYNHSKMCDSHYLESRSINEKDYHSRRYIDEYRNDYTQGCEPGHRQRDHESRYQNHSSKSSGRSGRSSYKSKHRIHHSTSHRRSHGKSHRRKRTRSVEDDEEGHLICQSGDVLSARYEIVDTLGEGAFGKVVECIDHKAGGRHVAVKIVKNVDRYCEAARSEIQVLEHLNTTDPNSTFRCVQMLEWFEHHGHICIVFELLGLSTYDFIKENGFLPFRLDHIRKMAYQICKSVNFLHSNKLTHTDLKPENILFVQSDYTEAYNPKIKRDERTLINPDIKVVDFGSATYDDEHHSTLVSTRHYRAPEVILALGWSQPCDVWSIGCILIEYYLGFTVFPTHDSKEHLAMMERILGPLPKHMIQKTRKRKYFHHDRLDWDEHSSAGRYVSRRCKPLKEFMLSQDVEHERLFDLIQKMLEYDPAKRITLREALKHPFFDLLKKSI

As for `O=P(O)(O)OC1C(OCc2ccccc2)C(OP(=O)(O)O)C(OP(=O)(O)O)C(OP(=O)(O)O)C1OP(=O)(O)O` (stereo not shown) [2-O-Bn-InsP5, 2-O-benzyl-myo-inositol 1,3,4,5,6-pentakisphosphate], the inhibition at 1 µM against GRK5 is 34%; at CHEK2 (CHK2) (1 µM compound), 12%; at ABL1 (1 µM compound), 0%; at IRAK4 (1 µM compound) it was -35%; at PIK3CG (p110γ) (1 µM compound), -41%; on CLK1 (1 µM compound) it was -4%. Moreover, the inhibition at 1 µM against LCK (1 µM compound) turned out to be 7%; against PRKCD (PKCδ) (1 µM compound), 9%; against FRAP1 (mTOR) (1 µM compound, [ATP] 10 µM) it was 48%; against RPS6KB1 (p70S6K) (1 µM compound), 17%; on ROCK1 (1 µM compound) it was 7%; against MAP2K2 (MEK2) (1 µM compound), 8%. Also, the inhibition at 1 µM against ROCK2 (1 µM compound) is 13%; on MAPK9 (JNK2) (1 µM compound), -1%; against CDK7/cyclin H/MNAT1 (1 µM compound), -2%; against CDK1/cyclin B (1 µM compound), 9%; on PRKACA (PKA) (1 µM compound) it was 4%; against JAK1 (1 µM compound), -1%. The inhibition at 1 µM against PAK6 (1 µM compound) stood at 9%; against PRKCE (PKCε) (1 µM compound), 14%. The molecule also returned an IC50 at FRAP1 (mTOR) (10-point titration, [ATP] 10 μM) of 1.3 µM. Further, the “T-C (tumour growth delay)” value in the experiment with PC3 xenografts (50 mg kg^-1, i.p., qdx15) is given as roughly 9 days. Also, the tumour growth result with PC3 xenografts (50 mg kg^−1 daily i.p., significant from day 22) was “strong reduction in tumour growth”; in the experiment on PC3 xenografts (12.5 and 25 mg kg^−1 daily i.p., vs untreated mice) it was “clearly decreased the growth of tumours”.
`O=P(O)(O)OC1C(O)C(OP(=O)(O)O)C(OP(=O)(O)O)C(OP(=O)(O)O)C1OP(=O)(O)O` (stereo not shown) [InsP5, inositol 1,3,4,5,6-pentakisphosphate]: the inhibition at 1 µM at GRK5 is 37%. The inhibition at 10 µM against CHEK2 (CHK2) (10 µM compound) was 15%; on ABL1 (10 µM compound) it was -16%; at IRAK4 (10 µM compound), -5%; against PIK3CG (p110γ) (10 µM compound), 4%; against CLK1 (10 µM compound), 9%; at LCK (10 µM compound), -26%. Further, the inhibition at 10 µM on PRKCD (PKCδ) (10 µM compound) worked out at 19%; on FRAP1 (mTOR) (10 µM compound, [ATP] 10 µM), 16%; against RPS6KB1 (p70S6K) (10 µM compound), 9%; at ROCK1 (10 µM compound) it was 20%; against MAP2K2 (MEK2) (10 µM compound), 3%; at ROCK2 (10 µM compound), 15%. Moreover, the inhibition at 10 µM was 23% on MAPK9 (JNK2) (10 µM compound); 0% against CDK7/cyclin H/MNAT1 (10 µM compound); 16% at CDK1/cyclin B (10 µM compound); 5% against PRKACA (PKA) (10 µM compound); -2% against JAK1 (10 µM compound); 20% on PAK6 (10 µM compound). For the same molecule, the inhibition at 10 µM against PRKCE (PKCε) (10 µM compound) was determined as 0%. The “% Inhibition Mean” value on FRAP1 (mTOR) (10 µM compound, [ATP] 10 µM) is “did not inhibit mTOR”. Further, the tumour growth result in the experiment with PC3 xenografts (up to 50 mg kg^−1 daily i.p.) was “no effect”.
